In US20230079819A1, “COMPOUNDS AND USES THEREOF” (Foghorn Therapeutics Inc., priority 2019, published 2023) one finds IC50 data, which are given here for 46 compounds.

One assay concerns the target T1, BRM (Homo sapiens, UniProt P51531).
T1 construct: made in house; host or cells: High Five insect cells
Briefly: ATPase catalytic activity of BRM, ADP-Glo in vitro biochemical assay. The following applies: ATPase catalytic activity, 30 nM BRM, 400 μM ATP, read-out: BRM IP50. For orientation: In ADP-Glo the light output rises with the ADP produced.

The target of a further assay is T2, BRG-1 (Homo sapiens, UniProt P51532).
T2 construct: made in house; host or cells: High Five insect cells
Description: ATPase catalytic activity of BRG-1, ADP-Glo in vitro biochemical assay. The following applies: ATPase catalytic activity, 30 nM BRG-1, 400 μM ATP, read-out: BRG1 IP50.

T2 sequence (P51532 whole entry): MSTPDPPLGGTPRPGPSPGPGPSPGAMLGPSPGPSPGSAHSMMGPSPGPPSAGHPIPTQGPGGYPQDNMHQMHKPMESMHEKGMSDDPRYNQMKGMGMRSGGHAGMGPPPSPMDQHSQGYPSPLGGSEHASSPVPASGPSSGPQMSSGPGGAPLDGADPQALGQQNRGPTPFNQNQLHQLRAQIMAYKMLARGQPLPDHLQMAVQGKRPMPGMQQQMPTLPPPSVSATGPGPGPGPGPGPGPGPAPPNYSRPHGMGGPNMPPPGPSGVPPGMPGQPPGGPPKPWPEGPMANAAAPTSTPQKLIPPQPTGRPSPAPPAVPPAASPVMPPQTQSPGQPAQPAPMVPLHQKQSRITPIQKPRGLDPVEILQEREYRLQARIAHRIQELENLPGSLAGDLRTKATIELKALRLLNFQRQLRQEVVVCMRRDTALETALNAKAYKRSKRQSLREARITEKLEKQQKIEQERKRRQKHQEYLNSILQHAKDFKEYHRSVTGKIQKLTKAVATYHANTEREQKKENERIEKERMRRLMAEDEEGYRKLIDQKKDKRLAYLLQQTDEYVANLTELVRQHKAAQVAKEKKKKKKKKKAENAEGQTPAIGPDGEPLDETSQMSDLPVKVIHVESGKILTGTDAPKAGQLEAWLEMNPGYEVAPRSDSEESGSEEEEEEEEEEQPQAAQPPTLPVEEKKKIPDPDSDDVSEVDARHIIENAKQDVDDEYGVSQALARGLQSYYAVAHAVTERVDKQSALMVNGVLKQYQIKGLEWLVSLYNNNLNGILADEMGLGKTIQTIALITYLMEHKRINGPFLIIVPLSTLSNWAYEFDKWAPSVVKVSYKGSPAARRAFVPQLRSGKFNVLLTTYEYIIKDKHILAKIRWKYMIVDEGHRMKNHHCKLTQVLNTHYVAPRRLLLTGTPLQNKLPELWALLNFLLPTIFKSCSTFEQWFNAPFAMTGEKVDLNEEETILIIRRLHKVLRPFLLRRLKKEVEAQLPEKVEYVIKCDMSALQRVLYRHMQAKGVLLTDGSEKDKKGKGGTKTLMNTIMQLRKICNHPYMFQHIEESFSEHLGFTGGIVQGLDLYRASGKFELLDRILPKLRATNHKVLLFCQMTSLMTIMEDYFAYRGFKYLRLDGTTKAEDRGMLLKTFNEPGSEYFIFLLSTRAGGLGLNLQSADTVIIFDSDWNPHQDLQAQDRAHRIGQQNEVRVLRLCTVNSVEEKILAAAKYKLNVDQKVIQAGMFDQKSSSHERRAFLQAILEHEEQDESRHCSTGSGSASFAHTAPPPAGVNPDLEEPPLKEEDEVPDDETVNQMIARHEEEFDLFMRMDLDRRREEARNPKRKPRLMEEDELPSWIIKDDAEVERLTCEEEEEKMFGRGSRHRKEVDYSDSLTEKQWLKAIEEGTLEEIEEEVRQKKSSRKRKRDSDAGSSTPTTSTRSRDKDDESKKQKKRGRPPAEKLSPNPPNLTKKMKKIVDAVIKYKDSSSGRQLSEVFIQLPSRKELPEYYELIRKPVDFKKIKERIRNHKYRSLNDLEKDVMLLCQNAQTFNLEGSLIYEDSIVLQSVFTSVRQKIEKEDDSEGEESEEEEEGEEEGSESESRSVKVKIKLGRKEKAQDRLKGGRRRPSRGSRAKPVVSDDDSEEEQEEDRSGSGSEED
T1 sequence (P51531 whole entry): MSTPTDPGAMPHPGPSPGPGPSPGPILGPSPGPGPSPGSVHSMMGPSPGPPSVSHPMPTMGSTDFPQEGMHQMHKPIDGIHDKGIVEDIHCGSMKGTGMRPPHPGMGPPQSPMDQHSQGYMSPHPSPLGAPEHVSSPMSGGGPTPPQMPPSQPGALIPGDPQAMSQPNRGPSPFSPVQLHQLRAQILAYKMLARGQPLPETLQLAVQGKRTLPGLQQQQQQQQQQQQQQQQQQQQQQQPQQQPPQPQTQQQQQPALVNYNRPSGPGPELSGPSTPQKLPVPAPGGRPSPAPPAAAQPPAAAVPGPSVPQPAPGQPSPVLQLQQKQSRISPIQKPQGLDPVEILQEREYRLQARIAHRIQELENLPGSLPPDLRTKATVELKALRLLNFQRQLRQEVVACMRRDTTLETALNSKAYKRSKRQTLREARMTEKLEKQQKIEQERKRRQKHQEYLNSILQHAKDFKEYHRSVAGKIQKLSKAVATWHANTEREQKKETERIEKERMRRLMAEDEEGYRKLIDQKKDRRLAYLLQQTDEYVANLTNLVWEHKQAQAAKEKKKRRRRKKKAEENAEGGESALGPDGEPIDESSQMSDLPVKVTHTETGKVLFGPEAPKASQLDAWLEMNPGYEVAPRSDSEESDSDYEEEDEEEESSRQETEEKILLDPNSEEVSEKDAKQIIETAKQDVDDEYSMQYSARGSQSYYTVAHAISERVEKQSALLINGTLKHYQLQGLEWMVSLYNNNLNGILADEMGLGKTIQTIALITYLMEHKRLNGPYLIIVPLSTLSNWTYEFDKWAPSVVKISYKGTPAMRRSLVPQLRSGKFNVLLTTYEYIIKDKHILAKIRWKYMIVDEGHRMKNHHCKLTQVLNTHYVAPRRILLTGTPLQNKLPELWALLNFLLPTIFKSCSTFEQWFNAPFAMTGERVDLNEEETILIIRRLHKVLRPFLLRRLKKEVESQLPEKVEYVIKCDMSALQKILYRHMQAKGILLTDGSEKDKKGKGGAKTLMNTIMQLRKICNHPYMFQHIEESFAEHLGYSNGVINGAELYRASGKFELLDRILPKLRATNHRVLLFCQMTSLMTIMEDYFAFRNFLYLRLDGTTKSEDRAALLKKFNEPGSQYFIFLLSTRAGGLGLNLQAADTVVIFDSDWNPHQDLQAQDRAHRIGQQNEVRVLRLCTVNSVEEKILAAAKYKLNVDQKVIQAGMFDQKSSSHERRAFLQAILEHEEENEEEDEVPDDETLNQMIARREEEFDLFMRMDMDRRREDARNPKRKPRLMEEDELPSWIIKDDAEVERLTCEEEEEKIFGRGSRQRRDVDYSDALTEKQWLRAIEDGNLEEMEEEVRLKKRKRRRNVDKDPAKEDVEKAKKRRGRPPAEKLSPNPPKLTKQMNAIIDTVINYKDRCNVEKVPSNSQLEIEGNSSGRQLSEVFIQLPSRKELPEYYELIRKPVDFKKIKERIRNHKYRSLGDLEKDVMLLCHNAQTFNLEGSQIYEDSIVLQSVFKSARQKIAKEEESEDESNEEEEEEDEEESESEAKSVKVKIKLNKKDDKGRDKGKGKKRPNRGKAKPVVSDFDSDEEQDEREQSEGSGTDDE

As to `Cc1cc(-c2cccc(-c3csc(NC(=O)CNC(=O)c4ccn(S(C)(=O)=O)c4)n3)c2)nc(C)n1` [Compound 412], the IC50 at BRM and on BRG-1 was < 10 nM in each case.

Turning to `Cc1cc(-c2cccc(-c3csc(NC(=O)CNC(=O)c4ccn(S(C)(=O)=O)c4)n3)c2)c(F)cn1` [Compound 413], the IC50 on BRM and on BRG-1 was < 10 nM throughout.

As for `CNC(=O)C(C)(C)n1ccc(-c2cccc(-c3csc(NC(=O)CNC(=O)c4ccn(S(C)(=O)=O)c4)n3)c2)n1` [Compound 414, N-[2-[[4-[3-[1-[1,1-dimethyl-2-(methylamino)-2-oxo-ethyl]pyrazol-3-yl]phenyl]thiazol-2-yl]amino]-2-oxo-ethyl]-1-methylsulfonyl-pyrrole-3-carboxamide], the IC50 at BRM and at BRG-1 was < 10 nM each time.

For `CC(C)(C)n1ccc(C(=O)NCC(=O)Nc2nc(-c3cccc(-c4cc5n(n4)CCOC5)c3)cs2)c1` [Compound 415], the IC50 at BRM and at BRG-1 was > 10 nM in each case.

For `Cc1nccc(-c2cccc(-c3csc(NC(=O)CNC(=O)c4ccn(S(C)(=O)=O)c4)n3)c2)n1` [Compound 416], the IC50 at BRM and at BRG-1 was < 10 nM throughout.

On to `Cc1cccc(-c2cccc(-c3csc(NC(=O)CNC(=O)c4ccn(C(C)(C)C)c4)n3)c2)n1` [Compound 417], for which the IC50 is < 10 nM at BRM and > 10 nM at BRG-1.

As for `CN(C)C(=O)C(C)(C)n1ccc(-c2cccc(-c3csc(NC(=O)CNC(=O)c4ccn(S(C)(=O)=O)c4)n3)c2)n1` [Compound 418], the IC50 on BRM and on BRG-1 was > 10 nM throughout.

`CS(=O)(=O)n1ccc(C(=O)NCC(=O)Nc2nc(-c3cccc([C@@H]4CCCOC4)c3)cs2)c1` [Compound 419, 1-methylsulfonyl-N-[2-oxo-2-[[4-[3-[(3S)-tetrahydropyran-3-yl]phenyl]thiazol-2-yl]amino]ethyl]pyrrole-3-carboxamide]: the IC50 was > 10 nM on BRM and > 100 nM at BRG-1.

With `CS(=O)(=O)n1ccc(C(=O)NCC(=O)Nc2nc(-c3cccc([C@H]4CCCOC4)c3)cs2)c1` [Compound 420, 1-methylsulfonyl-N-[2-oxo-2-[[4-[3-[(3R)-tetrahydropyran-3-yl]phenyl]thiazol-2-yl]amino]ethyl]pyrrole-3-carboxamide], the IC50 on BRM and at BRG-1 was > 10 nM each time.

Take `CS(=O)(=O)n1ccc(C(=O)NCC(=O)Nc2nc(-c3cccc(-c4ccnc(CC(=O)O)c4)c3)cs2)c1` [Compound 421, Sodium 2-(4-(3-(2-(2-(1-(methylsulfonyl)-1H-pyrrole-3-carboxamido)acetamido)thiazol-4-yl)phenyl)pyridin-2-yl)acetate]: the IC50 at BRM and at BRG-1 was > 10 nM each time.

On to `C[C@@H]1CN(c2cccc(-c3csc(NC(=O)CNC(=O)c4ccn(S(C)(=O)=O)c4)n3)c2)CC[C@H]1O` [Compound 423], for which the IC50 at BRM and at BRG-1 was < 10 nM in each case.

In the case of `Cc1cc(-c2cccc(-c3csc(NC(=O)CNC(=O)c4ccn(C(C)(C)C)c4)n3)c2)no1` [Compound 425], the IC50 at BRM and on BRG-1 was > 10 nM each time.

Turning to `CC(C)(O)C#Cc1cccc(-c2csc(NC(=O)CNC(=O)c3ccn(S(C)(=O)=O)c3)n2)c1` [Compound 426], the IC50 on BRM and at BRG-1 was > 10 nM throughout.

In the case of `COCC1CN(c2cccc(-c3csc(NC(=O)CNC(=O)c4ccn(S(C)(=O)=O)c4)n3)c2)C1` [Compound 427], the IC50 on BRM and on BRG-1 was > 10 nM each time.

With `COC[C@H](NC(=O)c1ccn(S(C)(=O)=O)c1)C(=O)Nc1nc(-c2ccc3ccn(C)c(=O)c3c2)cs1` [Compound 430], the IC50 at BRM and on BRG-1 was < 10 nM throughout.

In the case of `CC(C)(C)n1ccc(C(=O)NCC(=O)Nc2nc(-c3cccc(C4CCCCO4)c3)cs2)c1` (centres unmarked) [Compound 432], the IC50 at BRM and on BRG-1 was > 10 nM throughout.

As to `CN1CCn2nc(-c3cccc(-c4csc(NC(=O)CNC(=O)c5ccn(S(C)(=O)=O)c5)n4)c3)cc2C1=O` [Compound 433], the IC50 on BRM and at BRG-1 was > 10 nM each time.

For the compound `CC(C)(N)Cn1ccc(-c2cccc(-c3csc(NC(=O)CNC(=O)c4ccn(C(C)(C)C)c4)n3)c2)n1` [Compound 434], the IC50 at BRM and on BRG-1 was > 10 nM throughout.

Turning to `CNC(=O)C1(c2cc(-c3cccc(-c4csc(NC(=O)CNC(=O)c5ccn(S(C)(=O)=O)c5)n4)c3)ccn2)CC1` [Compound 435], the IC50 on BRM and at BRG-1 was < 10 nM in each case.

As for `COC[C@H](NC(=O)c1ccn(S(C)(=O)=O)c1)C(=O)Nc1nc(-c2cccc(-c3cc(C)no3)c2)cs1` [Compound 436], the IC50 on BRM and on BRG-1 was > 10 nM each time.

As to `CN1CCn2nc(-c3cccc(-c4csc(NC(=O)CNC(=O)c5ccn(C(C)(C)C)c5)n4)c3)cc2C1=O` [Compound 437], the IC50 at BRM and at BRG-1 was > 100 nM each time.

Turning to `COC[C@H](NC(=O)c1ccn(S(C)(=O)=O)c1)C(=O)Nc1nc(-c2cccc(-c3ccnc(Cl)c3)c2)cs1` [Compound 438], the IC50 on BRM and on BRG-1 was < 10 nM throughout.

With `CN(C)C(=O)C1(c2cc(-c3cccc(-c4csc(NC(=O)CNC(=O)c5ccn(S(C)(=O)=O)c5)n4)c3)ccn2)CC1` [Compound 439], the IC50 on BRM and on BRG-1 was < 10 nM in each case.

Regarding `CC(C)(C)n1ccc(C(=O)NCC(=O)Nc2nc(-c3cccc(N4CCN(C5COC5)CC4)n3)cs2)c1` [Compound 440], the IC50 at BRM and at BRG-1 was > 10 nM each time.

Take `CC(=O)NCCOc1cc(-c2cccc(-c3csc(NC(=O)CNC(=O)c4ccn(S(C)(=O)=O)c4)n3)c2)ccn1` [Compound 441]: the IC50 on BRM and at BRG-1 was < 10 nM in each case.

Take `CS(=O)(=O)n1ccc(C(=O)NCC(=O)Nc2nc(-c3cccc(-c4ccnc(OCCN)c4)c3)cs2)c1` [Compound 442]: the IC50 on BRM and at BRG-1 was < 10 nM throughout.

As to `COC[C@H](NC(=O)c1ccn(S(C)(=O)=O)c1)C(=O)Nc1nc(-c2cccc(-c3ccnc(OC)c3)c2)cs1` [Compound 443], the IC50 at BRM was < 10 nM; on BRG-1, > 10 nM.

For `COC[C@@H](NC(=O)c1ccn(S(C)(=O)=O)c1)C(=O)Nc1nc(-c2cccc(-c3ccnc(OC)c3)c2)cs1` [Compound 444], the IC50 on BRM and on BRG-1 was > 100 nM in each case.

Regarding `CS(=O)(=O)n1ccc(C(=O)NCC(=O)Nc2nc(-c3cccc(N4CC5CCC(C4)O5)c3)cs2)c1` [Compound 445], the IC50 at BRM was > 10 nM; on BRG-1, > 100 nM.

On to `Cn1cc2c(n1)CCN(c1cccc(-c3csc(NC(=O)CNC(=O)c4ccn(S(C)(=O)=O)c4)n3)c1)C2` [Compound 446], for which the IC50 on BRM and on BRG-1 was > 10 nM throughout.

As to `Cn1cc(-c2cccc(-c3csc(NC(=O)CNC(=O)c4ccn(S(C)(=O)=O)c4)n3)c2)nn1` [Compound 447], the IC50 on BRM and at BRG-1 was > 10 nM each time.

Take `CC(C)(C)n1ccc(C(=O)NCC(=O)Nc2nc(-c3cccc(N4CC(O)C4)c3)cs2)c1` [Compound 448]: the IC50 at BRM and on BRG-1 was > 10 nM throughout.

Turning to `CS(=O)(=O)n1ccc(C(=O)NCC(=O)Nc2nc(-c3cccc(N4CCC(F)CC4)c3)cs2)c1` [Compound 449], the IC50 at BRM and on BRG-1 was > 10 nM each time.

For `CS(=O)(=O)n1ccc(C(=O)NCC(=O)Nc2nc(-c3cccc(N4CCO[C@H](CO)C4)c3)cs2)c1` [Compound 450], the IC50 on BRM and at BRG-1 was > 10 nM in each case.

With `CS(=O)(=O)n1ccc(C(=O)NCC(=O)Nc2nc(-c3cccc(N4CCN(C5COC5)CC4)c3)cs2)c1` [Compound 451], the IC50 at BRM and at BRG-1 was > 100 nM each time.

Regarding `CS(=O)(=O)n1ccc(C(=O)NCC(=O)Nc2nc(-c3cccc(N4CCO[C@@H](CO)C4)c3)cs2)c1` [Compound 452], the IC50 at BRM and at BRG-1 was > 10 nM in each case.

Take `COC[C@H](NC(=O)c1ccn(C2(C)COC2)c1)C(=O)Nc1nc(-c2ccc3ccn(C)c(=O)c3c2)cs1` [Compound 453]: the IC50 at BRM and at BRG-1 was > 10 nM each time.

In the case of `CS(=O)(=O)n1ccc(C(=O)NCC(=O)Nc2nc(-c3cc(F)cc(OC4CC4)c3)cs2)c1` [Compound 455], the IC50 on BRM and on BRG-1 was > 10 nM throughout.

Regarding `C[C@@H]1CN(c2cccc(-c3csc(NC(=O)CNC(=O)c4ccn(C5(C#N)CC5)c4)n3)n2)C[C@H](C)O1` [Compound 458], the IC50 is < 10 nM on BRM and > 10 nM on BRG-1.

For the compound `COC[C@H](NC(=O)c1ccn(S(C)(=O)=O)c1)C(=O)Nc1nc(-c2cccc(OC(F)(F)F)c2)cs1` [Compound 459], the IC50 at BRM and on BRG-1 was > 10 nM throughout.

In the case of `CS(=O)(=O)n1ccc(C(=O)NCC(=O)Nc2nc(-c3cccc(N4CCC(N)C(F)(F)C4)c3)cs2)c1` (centres unmarked) [Compound 460], the IC50 on BRM and on BRG-1 was > 10 nM in each case.

As to `COC[C@H](NC(=O)c1ccn(S(C)(=O)=O)c1)C(=O)Nc1nc(-c2cccc(N3CCC3)c2)c(F)s1` [Compound 461], the IC50 at BRM and at BRG-1 was > 100 nM in each case.

Regarding `COC[C@H](NC(=O)c1ccn(S(C)(=O)=O)c1)C(=O)Nc1nc(-c2cccc(-c3ccn(C)n3)c2)cs1` [Compound 462], the IC50 at BRM and at BRG-1 was > 10 nM in each case.

With `CS(=O)(=O)n1ccc(C(=O)NCC(=O)Nc2nc(-c3cccc(C(F)(F)F)c3)cs2)c1` [Compound 463], the IC50 on BRM and at BRG-1 was > 10 nM in each case.

In the case of `CC(C)(C)n1ccc(C(=O)NCC(=O)Nc2nc(-c3cccc(C4COC4)c3)cs2)c1` [Compound 464], the IC50 at BRM was > 10 nM; at BRG-1, > 100 nM.

Take `CS(=O)(=O)n1ccc(C(=O)NCC(=O)Nc2nc(-c3cccc(C4COC4)c3)cs2)c1` [Compound 465]: the IC50 on BRM and at BRG-1 was > 10 nM in each case.
